# US20220016115A1, “USP19 INHIBITORS FOR USE IN THERAPY” (ALMAC DISCOVERY LIMITED, priority 2018, published 2022)
# Biological target: T1, USP19 (Mus musculus, UniProt Q3UJD6)
# T1 construct: endogenous in cells
# T1 sequence (Q3UJD6 1-1360): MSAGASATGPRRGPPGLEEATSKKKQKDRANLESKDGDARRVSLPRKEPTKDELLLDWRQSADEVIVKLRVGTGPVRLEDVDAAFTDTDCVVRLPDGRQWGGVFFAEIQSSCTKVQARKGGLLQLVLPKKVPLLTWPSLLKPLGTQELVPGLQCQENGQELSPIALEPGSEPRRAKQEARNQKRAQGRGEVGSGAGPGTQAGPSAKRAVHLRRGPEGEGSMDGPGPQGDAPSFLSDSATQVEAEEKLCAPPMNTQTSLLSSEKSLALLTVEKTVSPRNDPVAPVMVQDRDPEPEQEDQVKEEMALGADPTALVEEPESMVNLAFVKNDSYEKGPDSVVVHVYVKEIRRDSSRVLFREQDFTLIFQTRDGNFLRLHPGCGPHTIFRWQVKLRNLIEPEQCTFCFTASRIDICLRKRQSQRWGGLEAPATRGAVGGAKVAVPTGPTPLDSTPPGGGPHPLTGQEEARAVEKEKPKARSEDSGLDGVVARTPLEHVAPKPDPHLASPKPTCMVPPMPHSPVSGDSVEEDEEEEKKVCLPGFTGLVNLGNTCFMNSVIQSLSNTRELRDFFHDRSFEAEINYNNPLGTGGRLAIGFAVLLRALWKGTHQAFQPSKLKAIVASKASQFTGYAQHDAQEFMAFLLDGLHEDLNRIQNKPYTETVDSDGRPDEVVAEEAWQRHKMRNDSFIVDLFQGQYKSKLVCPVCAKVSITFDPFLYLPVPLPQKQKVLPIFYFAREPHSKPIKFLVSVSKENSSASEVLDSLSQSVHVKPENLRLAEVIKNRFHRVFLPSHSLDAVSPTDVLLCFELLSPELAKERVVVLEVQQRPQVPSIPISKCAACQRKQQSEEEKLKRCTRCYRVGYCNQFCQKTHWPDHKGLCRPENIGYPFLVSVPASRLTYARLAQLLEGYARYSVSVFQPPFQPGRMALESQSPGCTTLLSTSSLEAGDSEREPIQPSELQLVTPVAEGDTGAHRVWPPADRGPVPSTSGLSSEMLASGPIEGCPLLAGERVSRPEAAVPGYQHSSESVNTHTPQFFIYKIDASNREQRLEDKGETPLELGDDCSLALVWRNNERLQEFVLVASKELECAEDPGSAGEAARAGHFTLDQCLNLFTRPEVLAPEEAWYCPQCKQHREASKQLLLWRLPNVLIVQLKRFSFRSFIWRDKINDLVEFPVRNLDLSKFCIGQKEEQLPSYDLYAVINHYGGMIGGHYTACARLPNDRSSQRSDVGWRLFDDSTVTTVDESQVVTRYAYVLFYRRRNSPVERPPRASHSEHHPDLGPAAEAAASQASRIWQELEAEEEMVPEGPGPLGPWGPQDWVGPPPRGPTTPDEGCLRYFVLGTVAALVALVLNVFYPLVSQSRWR
# Assay: Cell target engagement, mouse skeletal muscle cell line
# Format: cell-based
# Protocol: Cells from a breast cancer cell line, a neuroblastoma cell line and a mouse skeletal muscle cell line were treated with a USP19 inhibitor compound (ADC-141, corresponding to Example 212 provided herein) for 2 hrs, lysed (lysis buffer: 50 mM Tris pH 7.4; 150 mM NaCl; 5 mM MgCl2; 0.5 mM EDTA; 0.5% NP40; 10% Glycerol; 2 mM DTT) and Ubiquitin-propargylamine (Ub-PA; UbiQ) or Ubiquitin-vinyl methyl ester (Ub-VME; Almac Sciences Scotland Limited) was then added. Samples were analysed by western blotting probing for USP19 (EC50 determined by densitometry).
smiles,measurement,setting,value
"C[C@H](CC1CCCCC1)C(=O)N1CC[C@@](O)(Cn2cc(C(=O)N3CCNCC3)c(-c3ccccc3)cc2=O)C2(CCCC2)C1 [ADC-141, 1-(((S)-7-((R)-3-Cyclohexyl-2-methylpropanoyl)-10-hydroxy-7-azaspiro[4.5]decan-10-yl)methyl)-4-phenyl-5-(piperazine-1-carbonyl)pyridin-2(1H)-one]",cell permeability,,good cell permeability
same,"EC50 (USP19 target engagement, densitometry)","2 hrs treatment, Ub-PA or Ub-VME probe, western blot",low nanomolar
